Data published in patent publication US20220241228A1, “Treatment of cholangiopathies” (CymaBay Therapeutics, Inc., priority 2021, published 2022).
Read-outs that look alike come from different tables or passages of the source.

Legend:
[1] = test system: PBC patients; details: 12-month trial, cited from earlier work
[2] = test system: patients with primary biliary cholangitis; details: over a 52-week period; cited from earlier work
[3] = biological target: T1, PPARα (Homo sapiens, UniProt Q07869); assay: Specificity of seladelpar compared with PPARα; type: biochemical; details: PPARδ versus PPARα
T1 sequence (Q07869 1-468): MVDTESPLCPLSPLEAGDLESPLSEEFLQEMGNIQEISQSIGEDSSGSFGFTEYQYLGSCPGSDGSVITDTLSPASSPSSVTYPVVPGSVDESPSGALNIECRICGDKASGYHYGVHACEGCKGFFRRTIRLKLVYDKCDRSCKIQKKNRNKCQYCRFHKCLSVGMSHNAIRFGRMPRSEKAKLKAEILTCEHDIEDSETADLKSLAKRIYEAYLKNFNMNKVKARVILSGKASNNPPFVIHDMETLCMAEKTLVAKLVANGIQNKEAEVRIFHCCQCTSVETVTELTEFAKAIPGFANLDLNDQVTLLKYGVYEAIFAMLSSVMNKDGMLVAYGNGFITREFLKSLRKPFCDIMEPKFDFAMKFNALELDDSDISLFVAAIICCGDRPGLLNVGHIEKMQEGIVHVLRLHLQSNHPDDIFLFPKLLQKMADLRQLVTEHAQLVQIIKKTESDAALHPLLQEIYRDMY
Description: It is specific (>600-fold and >2500-fold compared with PPARα and PPARγ receptors). PPARδ activation stimulates fatty acid oxidation and utilization, improves plasma lipid and lipoprotein metabolism, glucose utilization, and mitochondrial respiration, and preserves stem cell homeostasis.

[4] = test system: subjects with PSC; assay: Randomized placebo-controlled 24-week trial in primary sclerosing cholangitis (Example 2); type: in vivo, human; details: 5, 10, or 20 mg/day orally once/day for 24 weeks
Protocol: Trial subjects are adult, male or female, with a diagnosis of PSC by at least two of the following three criteria: (a) historical evidence of an elevated AP >ULN from any prior laboratory result, (b) liver biopsy consistent with PSC, and (c) abnormal cholangiography consistent with PSC as measured by MRCP, ERCP, or percutaneous transhepatic cholangiography; on a stable and recommended dose of UDCA ≤20 mg/Kg/day for the past six months or at least twelve weeks off UDCA treatment; and intolerant of, or having an inadequate response to, obeticholic acid and/or a fibrate. Other criteria include ALP ≥1.5×ULN, TBIL ≤2×ULN, ALT and AST both ≤5×ULN, eGFR >60 mL/min/1.73 m^2, platelets ≥140×10^3/μL, INR ≤1.3 (in the absence of warfarin or other anticoagulant therapy), and albumin ≥3.5 g/dL. Exclusion criteria include clinically significant acute or chronic liver disease of an etiology other than PSC, a diagnosis of overlapping autoimmune hepatitis (AIH) and PSC, secondary or IgG4 related sclerosing cholangitis, small duct PSC, presence of a cholangiocarcinoma on cholangiography or MRI, bile duct stenting, history, evidence, or high suspicion of cholangiocarcinoma or other hepatobiliary malignancy, presumptive or diagnosed acute cholangitis within twelve weeks, and evidence of compensated or decompensated cirrhosis. […]

[5] = test system: Subjects with primary biliary cholangitis; assay: Pooled open-label Phase 2 and placebo-controlled Phase 3 studies of seladelpar in PBC subjects intolerant of, or with inadequate response to, obeticholic acid and/or a fibrate; type: in vivo, human; details: for Composite endpoint met / ALP ≤ ULN / Mean change in ALT / Mean change in TBIL / Mean change in ALP: three months; for Composite endpoint met: ALP <1.67×ULN, >15% decrease in ALP, and TBIL ULN; for Mean change in ALP: from baseline
Description: The trial subjects were adult, male or female, with a diagnosis of PBC by at least two of the following three criteria: (a) a history of ALP above the upper limit of normal (ULN) for at least six months, (b) positive anti-mitochondrial antibody titers > 1/40 on immunofluorescence or M2 positive by enzyme linked immunosorbent assay or positive PBC-specific antinuclear antibodies, and (c) documented liver biopsy result consistent with PBC, on a stable and recommended dose of UDCA for the past twelve months or UDCA intolerant, and ALP ≥1.67×ULN. Exclusion criteria included AST or ALT ≥3×ULN, TBIL ≥2×ULN, autoimmune hepatitis or a history of chronic viral hepatitis, PSC, the current use of fibrates or simvastatin, the use of colchicine, methotrexate, azathioprine, or systemic steroids in the previous two months, the use of an experimental treatment for PBC, and the use of an experimental or unapproved immunosuppressant. […] Efficacy was assessed on subjects treated for three months. The composite endpoint was the responder rate for subjects achieving ALP <1.67×ULN, >15% decrease in ALP, and TBIL ULN. Additional endpoints were ALP ULN, ALP change from baseline, and other markers of liver function. Safety was assessed over one year. […] Fifty-one subjects were treated for 3 months; and 37 were assessed; with results in the table below: A safety analysis was performed on all 71 subjects.

[6] = test system: PBC patients; details: cited from earlier work
[7] = PBC subjects intolerant of, or inadequate response to, obeticholic acid and/or a fibrate

Q: Which results are given for `CC[C@H]1[C@@H](O)[C@@H]2[C@H](CC[C@]3(C)[C@@H]([C@H](C)CCC(=O)O)CC[C@@H]23)[C@@]2(C)CC[C@@H](O)C[C@@H]12` [OCA, 6α-ethylchenodeoxycholic acid]?
A: patients with severe pruritus ([1]; OCALIVA 10 mg arm): 23%; patients with severe pruritus ([1]; OCALIVA titration arm): 19%

Q: Which results are given for `CCO[C@H](COc1ccc(C(F)(F)F)cc1)CSc1ccc(OCC(=O)O)c(C)c1` [Seladelpar, [4-({(2R)-2-ethoxy-3-[4-(trifluoromethyl)phenoxy]propyl}sulfanyl)-2-methylphenoxy]acetic acid]?
A: ALP and GGT [2]: statistically significant decreases; ALT [2]: statistically significant decrease; total bilirubin levels [2]: stable; specificity compared with PPARα [3]: > 600 fold; ALP [4]: dose-related reductions; PSC-related symptoms [4]: improvements; Pruritus adverse events experienced ([5]; 5 mg/day orally once/day): 15%; Composite endpoint met ([5]; 5 mg/day orally once/day as L-lysine dihydrate salt): 40%; ALP ≤ ULN ([5]; 5 mg/day orally once/day): 0; Mean change in ALT ([5]; 5 mg/day orally once/day): −13%; Mean change in TBIL ([5]; 5 mg/day orally once/day): −3%; Mean change in ALP ([5]; 5 mg/day orally once/day): −31%; subjects who experienced a serious adverse event ([5]; 5 mg/day, safety analysis on all 71 subjects, all unrelated to seladelpar): three; subjects who discontinued treatment due to adverse events ([5]; 5 mg/day, safety analysis on all 71 subjects, one ALT/AST elevation, one gastroesophageal reflux disease): two; Pruritus adverse events experienced ([5]; 10 mg/day orally once/day): 7%; Composite endpoint met ([5]; 10 mg/day orally once/day as L-lysine dihydrate salt): 79%; ALP ≤ ULN ([5]; 10 mg/day orally once/day): 21%; Mean change in ALT ([5]; 10 mg/day orally once/day): −21%; Mean change in TBIL ([5]; 10 mg/day orally once/day): −9%; Mean change in ALP ([5]; 10 mg/day orally once/day): −45%; biochemical markers of cholestasis [5, 7]: meaningful improvement; safety and tolerability [5, 7]: safe, well tolerated

Q: With `C[C@H](CCC(=O)O)[C@H]1CC[C@H]2[C@@H]3[C@@H](O)C[C@@H]4C[C@H](O)CC[C@]4(C)[C@H]3CC[C@]12C` [UDCA, ursodeoxycholic acid] as the molecule, how does the “patients reported to be intolerant to treatment” value [6] read?
A: The value was “about 5%”.
